# Test results: publication PMC4529466, “Intradermal insulin infusion achieves faster insulin action than subcutaneous infusion for 3-day wear” (Drug Delivery and Translational Research, 2015)
# Tested on: blood glucose
# Experiment: Postprandial blood glucose pharmacodynamics after meal bolus, 3-day ID vs SC infusion
# Assay type: in vivo, human (T1DM patients)
# Details: ID; for BGavg0–1 / BGmax0–1 / ΔAUC-BG0–1 / ΔBGmax0–1 / BGavg0–1.5 / BGmax0–1.5 / ΔAUC-BG0–1.5 / ΔBGmax0–1.5 / BGavg0–2 / BGmax0–2 / ΔAUC-BG0–2 / ΔBGmax0–2 / BGavg0–4 / BGmax0–4 / ΔAUC-BG0–4 / ΔBGmax0–4 / BG1 / ΔBG1 / BG1.5 / ΔBG1.5 / BG2 / ΔBG2 / BG4 / ΔBG4: mean ± SD; for BG1 / ΔBG1: at 1 h; for BG1.5 / ΔBG1.5: at 1.5 h; for BG2 / ΔBG2: at 2 h; for BG4 / ΔBG4: at 4 h
# Excerpt: This was a single center, open-label, two-period crossover study, randomized by infusion order, in T1DM patients on continuous subcutaneous insulin infusion (CSII). The protocol was approved by an independent ethics committee (Ethikkommission der Ärztekammer Nordrhein, Düsseldorf, Germany), appropriate regulatory bodies (German Federal Institute for Drugs and Medical Devices (BfArM)), and conducted in compliance with good clinical practice (GCP), the Declaration of Helsinki, and applicable regulatory requirements.
# The study was completed over a multi-week period consisting of three study visits: a screening visit (V1) and two interventional visits (V2 and V3). After establishing eligibility and enrollment, patients received treatment during two interventional visits: one SC and one ID basal/bolus infusion of insulin aspart (NovoRapid® U-100, Novo Nordisk, Copenhagen, Denmark) administered over 3 days in a randomized order.
# Individual meal bolus doses were determined based on patient self-reported insulin to carbohydrate ratios and insulin sensitivity, historical self-reported insulin usage for meal coverage, and clinician review and adjustment of insulin usage during the in-clinic BG stabilization period the evening prior to the first morning meal. Basal insulin infusion rates were initiated based on the patient’s known daily delivery profile and could be adjusted by the clinician to maintain levels within 70–160 mg/dL according to a predetermined sliding scale and hourly changes in glycemia. A continuous glucose monitor (Seven Plus®, DexCom Inc., San Diego, CA) calibrated per manufacturer’s recommendations was applied to continuously monitor glycemia as a safety measure, in addition to periodic blood sampling for BG determination.
# After maintaining targeted blood glucose range during the preceding night, bolus insulin doses were administered via the respective infusion catheter prior to standardized breakfast and lunch test meals on each of the three treatment days. Each meal insulin bolus was calculated based on the patient’s insulin sensitivity and previous hours change in BG per sliding scale then delivered immediately prior to breakfast (t = 0 min) and lunch (t = 360 min) consumption. Breakfast was a high glycemic index (60 g carbohydrates) solid meal, and lunch was a mixed meal based on the individual’s calculated daily energy intake and equivalent in caloric composition by day. Breakfast and lunch meals were consumed within 15 min followed by serial blood sampling with BG monitoring for a period of 6 and 4 h, respectively. Patients were asked to remain sedentary for 2 h after meals. Identical study procedures were utilized for the remaining dosing visit days (Fig. 2).
# To assess insulin absorption kinetics and glycemic response, blood samples for measurements of insulin aspart and blood glucose in serum were drawn at predefined time points throughout dosing visits. Serial samples for safety BG determination, but not PK analysis, were obtained at a minimum every 2 h. Meal PK/PD analysis samples were acquired immediately pre-bolus and for 4–6 h post-bolus for breakfast and lunch meals, with a higher frequency during the first 2 h to capture insulin and BG peak levels {Post-bolus breakfast time points (min): 0, 10, 15, 20, 25, 30, 35, 40, 45, 50, 55, 60, 65, 70, 80, 90, 120, 150, 180, 210, 240, 300, 330, 360; Post-bolus lunch time points (min): 0, 10, 20, 30, 40, 50, 60, 70, 80, 90, 120, 180, 240, 300}. Sampling times were based on previous clinical study experience for bolus microneedle insulin delivery and had increased sampling frequency in the first 90 min post-delivery to capture the rapid insulin peaks from microneedle ID delivery. Blood samples for evening meal and basal period PK assessment could not be obtained due to daily blood draw volume limits for patient safety. Serum insulin aspart was measured by a third party laboratory (IKFE GmbH, Mainz, Germany) using a validated insulin assay (Invitron ELISA kit). […]
# [1] = 0–1 h, Days 1–3 combined, all test meals, n = 150–156
# [2] = 0–1 h, across all study days and meals
# [3] = 0–1.5 h, Days 1–3 combined, all test meals, n = 150–156
# [4] = 0–1.5 h, across all study days and meals
# [5] = 0–2 h, Days 1–3 combined, all test meals, n = 150–156
# [6] = 0–2 h, across all study days and meals
# [7] = 0–4 h, Days 1–3 combined, all test meals, n = 150–156
# [8] = Days 1–3 combined, all test meals, n = 150–156
substance,measurement,setting,value
insulin aspart,BGavg0–1,"0–1 h, Day 1, across meals",135 ± 45.9 mg/dL
same,BGmax0–1,"0–1 h, Day 1, across meals",159 ± 53.1 mg/dL
same,ΔAUC-BG0–1,"0–1 h, Day 1, across meals",17.2 ± 22.3 mg·h/dL
same,ΔBGmax0–1,"0–1 h, Day 1, across meals",41.3 ± 32.1 mg/dL
same,BGavg0–1,"0–1 h, Day 2, across meals",138 ± 37.4 mg/dL
same,BGmax0–1,"0–1 h, Day 2, across meals",162 ± 43.0 mg/dL
same,ΔAUC-BG0–1,"0–1 h, Day 2, across meals",18.7 ± 22.0 mg·h/dL
same,ΔBGmax0–1,"0–1 h, Day 2, across meals",43.1 ± 30.2 mg/dL
same,BGavg0–1,"0–1 h, Day 3, across meals",136 ± 37.3 mg/dL
same,BGmax0–1,"0–1 h, Day 3, across meals",162 ± 41.5 mg/dL
same,ΔAUC-BG0–1,"0–1 h, Day 3, across meals",18.5 ± 19.2 mg·h/dL
same,ΔBGmax0–1,"0–1 h, Day 3, across meals",44.2 ± 28.1 mg/dL
same,BGavg0–1,[1],136 ± 40.5 mg/dL
same,BGmax0–1,[1],161 ± 46.2 mg/dL
same,ΔAUC-BG0–1,[1],18.1 ± 21.2 mg·h/dL
same,ΔBGmax0–1,[1],42.8 ± 30.1 mg/dL
same,Intra-subject variability of BGavg,[2],26.3 %CV
same,Intra-subject variability of BGmax,[2],25.2 %CV
same,BGavg0–1.5,"0–1.5 h, Day 1, across meals",137 ± 42.1 mg/dL
same,BGmax0–1.5,"0–1.5 h, Day 1, across meals",160 ± 46.8 mg/dL
same,ΔAUC-BG0–1.5,"0–1.5 h, Day 1, across meals",32.4 ± 41.7 mg·h/dL
same,ΔBGmax0–1.5,"0–1.5 h, Day 1, across meals",45.0 ± 34.5 mg/dL
same,BGavg0–1.5,"0–1.5 h, Day 2, across meals",144 ± 39.9 mg/dL
same,BGmax0–1.5,"0–1.5 h, Day 2, across meals",169 ± 45.6 mg/dL
same,ΔAUC-BG0–1.5,"0–1.5 h, Day 2, across meals",36.8 ± 40.8 mg·h/dL
same,ΔBGmax0–1.5,"0–1.5 h, Day 2, across meals",49.5 ± 33.5 mg/dL
same,BGavg0–1.5,"0–1.5 h, Day 3, across meals",143 ± 40.2 mg/dL
same,BGmax0–1.5,"0–1.5 h, Day 3, across meals",172 ± 45.0 mg/dL
same,ΔAUC-BG0–1.5,"0–1.5 h, Day 3, across meals",39.3 ± 36.8 mg·h/dL
same,ΔBGmax0–1.5,"0–1.5 h, Day 3, across meals",54.8 ± 34.2 mg/dL
same,BGavg0–1.5,[3],141 ± 40.6 mg/dL
same,BGmax0–1.5,[3],167 ± 45.8 mg/dL
same,ΔAUC-BG0–1.5,[3],36.0 ± 39.8 mg·h/dL
same,ΔBGmax0–1.5,[3],49.5 ± 34.1 mg/dL
same,Intra-subject variability of BGavg,[4],25.6 %CV
same,Intra-subject variability of BGmax,[4],24.5 %CV
same,BGavg0–2,"0–2 h, Day 1, across meals",139 ± 43.8 mg/dL
same,BGmax0–2,"0–2 h, Day 1, across meals",165 ± 47.8 mg/dL
same,ΔAUC-BG0–2,"0–2 h, Day 1, across meals",47.8 ± 63.1 mg·h/dL
same,ΔBGmax0–2,"0–2 h, Day 1, across meals",49.4 ± 36.7 mg/dL
same,BGavg0–2,"0–2 h, Day 2, across meals",146 ± 41.9 mg/dL
same,BGmax0–2,"0–2 h, Day 2, across meals",171 ± 46.5 mg/dL
same,ΔAUC-BG0–2,"0–2 h, Day 2, across meals",53.9 ± 61.9 mg·h/dL
same,ΔBGmax0–2,"0–2 h, Day 2, across meals",52.2 ± 33.7 mg/dL
same,BGavg0–2,"0–2 h, Day 3, across meals",148 ± 41.8 mg/dL
same,BGmax0–2,"0–2 h, Day 3, across meals",176 ± 44.9 mg/dL
same,ΔAUC-BG0–2,"0–2 h, Day 3, across meals",62.8 ± 56.3 mg·h/dL
same,ΔBGmax0–2,"0–2 h, Day 3, across meals",59.5 ± 34.9 mg/dL
same,BGavg0–2,[5],144 ± 42.4 mg/dL
same,BGmax0–2,[5],170 ± 46.4 mg/dL
same,ΔAUC-BG0–2,[5],54.5 ± 60.6 mg·h/dL
same,ΔBGmax0–2,[5],53.5 ± 35.2 mg/dL
same,Intra-subject variability of BGavg,[6],25.9 %CV
same,Intra-subject variability of BGmax,[6],23.8 %CV
same,BGavg0–4,"0–4 h, Day 1, across meals",141 ± 44.0 mg/dL
same,BGmax0–4,"0–4 h, Day 1, across meals",178 ± 49.1 mg/dL
same,ΔAUC-BG0–4,"0–4 h, Day 1, across meals",105 ± 148 mg·h/dL
same,ΔBGmax0–4,"0–4 h, Day 1, across meals",64.0 ± 43.6 mg/dL
same,BGavg0–4,"0–4 h, Day 2, across meals",148 ± 41.3 mg/dL
same,BGmax0–4,"0–4 h, Day 2, across meals",186 ± 43.2 mg/dL
same,ΔAUC-BG0–4,"0–4 h, Day 2, across meals",120 ± 140 mg·h/dL
same,ΔBGmax0–4,"0–4 h, Day 2, across meals",69.4 ± 36.8 mg/dL
same,BGavg0–4,"0–4 h, Day 3, across meals",156 ± 45.0 mg/dL
same,BGmax0–4,"0–4 h, Day 3, across meals",188 ± 49.8 mg/dL
same,ΔAUC-BG0–4,"0–4 h, Day 3, across meals",156 ± 140 mg·h/dL
same,ΔBGmax0–4,"0–4 h, Day 3, across meals",70.4 ± 42.2 mg/dL
same,BGavg0–4,[7],148 ± 43.6 mg/dL
same,BGmax0–4,[7],184 ± 47.4 mg/dL
same,ΔAUC-BG0–4,[7],126 ± 144 mg·h/dL
same,ΔBGmax0–4,[7],67.8 ± 40.8 mg/dL
same,Intra-subject variability of BGmax,"0–4 h, across all study days and meals",21.1 %CV
same,BG1,"Day 1, across meals",151 ± 56.0 mg/dL
same,ΔBG1,"Day 1, across meals",33.3 ± 38.2 mg/dL
same,BG1,"Day 2, across meals",155 ± 45.8 mg/dL
same,ΔBG1,"Day 2, across meals",35.8 ± 35.4 mg/dL
same,BG1,"Day 3, across meals",156 ± 45.2 mg/dL
same,ΔBG1,"Day 3, across meals",38.2 ± 32.9 mg/dL
same,BG1,[8],154 ± 49.3 mg/dL
same,ΔBG1,[8],35.6 ± 35.5 mg/dL
same,BG1.5,"Day 1, across meals",146 ± 52.2 mg/dL
same,ΔBG1.5,"Day 1, across meals",31.0 ± 44.4 mg/dL
same,BG1.5,"Day 2, across meals",155 ± 51.4 mg/dL
same,ΔBG1.5,"Day 2, across meals",35.8 ± 44.4 mg/dL
same,BG1.5,"Day 3, across meals",163 ± 51.3 mg/dL
same,ΔBG1.5,"Day 3, across meals",45.7 ± 41.2 mg/dL
same,BG1.5,[8],154 ± 51.8 mg/dL
same,ΔBG1.5,[8],37.2 ± 43.6 mg/dL
same,BG2,"Day 1, across meals",145 ± 54.5 mg/dL
same,ΔBG2,"Day 1, across meals",30.2 ± 48.5 mg/dL
same,BG2,"Day 2, across meals",152 ± 51.9 mg/dL
same,ΔBG2,"Day 2, across meals",33.1 ± 46.1 mg/dL
same,BG2,"Day 3, across meals",165 ± 50.5 mg/dL
same,ΔBG2,"Day 3, across meals",48.0 ± 43.3 mg/dL
same,BG2,[8],154 ± 52.7 mg/dL
same,ΔBG2,[8],36.7 ± 46.5 mg/dL
same,BG4,"Day 1, across meals",145 ± 52.1 mg/dL
same,ΔBG4,"Day 1, across meals",29.3 ± 54.1 mg/dL
same,BG4,"Day 2, across meals",147 ± 55.5 mg/dL
same,ΔBG4,"Day 2, across meals",28.0 ± 55.7 mg/dL
same,BG4,"Day 3, across meals",160 ± 60.1 mg/dL
same,ΔBG4,"Day 3, across meals",43.6 ± 54.8 mg/dL
same,BG4,[8],150 ± 55.9 mg/dL
same,ΔBG4,[8],33.3 ± 54.9 mg/dL
same,BG at 1 h,p = 0.0121 vs SC,154
same,Intra-subject variability of BG,"time 1 h, across all study days and meals",29.1 %CV
same,Intra-subject variability of BG,"time 1.5 h, across all study days and meals",31.5 %CV
same,Intra-subject variability of ΔBG,"time 2 h, across all study days and meals",90.2 %CV
